Assay [1] has as its target Carbonic anhydrase 9 (Homo sapiens, UniProt Q16790).
Assay [2] has as its target Carbonic anhydrase 2 (Homo sapiens, UniProt P00918).
The target of assay [3] is Carbonic anhydrase 1 (Homo sapiens, UniProt P00915).

SMILES strings stand for the structures.

Chain of Carbonic anhydrase 1 (P00915 whole entry): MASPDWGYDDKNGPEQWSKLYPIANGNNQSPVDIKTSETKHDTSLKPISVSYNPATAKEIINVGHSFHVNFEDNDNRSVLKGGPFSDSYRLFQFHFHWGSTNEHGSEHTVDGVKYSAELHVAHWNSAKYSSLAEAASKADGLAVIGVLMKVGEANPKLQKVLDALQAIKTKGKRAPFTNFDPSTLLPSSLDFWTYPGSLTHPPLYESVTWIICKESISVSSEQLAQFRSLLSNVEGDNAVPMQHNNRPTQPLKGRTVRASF

On to `CC1(C)OB(c2ccc(NC(=S)Nc3ccc(S(=O)(=O)Nc4nnc(S(N)(=O)=O)s4)cc3)cc2)OC1(C)C`, for which the inhibition constant (Ki) in assay [1] worked out at 0.0073 µM; in assay [2], 0.0051 µM; in assay [3] it was 0.034 µM.
On the same counts, the results for `CC1(C)OB(c2ccc(C(=O)Nc3ccc(S(N)(=O)=O)cc3)cc2)OC1(C)C` are 0.053 µM, 0.0052 µM and 0.07 µM.
On the same counts, the results for `CC1(C)OB(c2ccc(C(=O)Nc3nnc(S(N)(=O)=O)s3)cc2)OC1(C)C` are 0.0076 µM, 0.0031 µM and 0.036 µM.
For `CC1(C)OB(c2ccc(NC(=S)Nc3ccc(S(N)(=O)=O)cc3Br)cc2)OC1(C)C`, the Ki in assay [1] was 0.089 µM; in assay [2] it was 0.0051 µM; in assay [3], 0.072 µM.
On the same counts, the results for `CC1(C)OB(c2ccc(NC(=S)Nc3ccc(S(N)(=O)=O)cc3)cc2)OC1(C)C` are 0.08 µM, 0.0051 µM and 0.069 µM.
As for `CC1(C)OB(c2ccc(NS(N)(=O)=O)cc2)OC1(C)C`, the Ki in assay [1] was found to be 0.081 µM; in assay [3], 0.092 µM.
On to `CC1(C)OB(c2ccc(OS(N)(=O)=O)cc2)OC1(C)C`, for which the Ki amounted to 0.08 µM in assay [1], 0.032 µM in assay [2] and 0.094 µM in assay [3].
The corresponding values for `CC1(C)OB(c2ccc(NC(=S)Nc3cccc(S(N)(=O)=O)c3)cc2)OC1(C)C` are 0.081 µM, 0.0055 µM and 0.07 µM.
On the same counts, the results for `CC1(C)OB(c2ccc(N/C(S)=N/c3ccc(S(N)(=O)=O)cc3Cl)cc2)OC1(C)C` are 0.081 µM, 0.005 µM and 0.0705 µM.
The corresponding values for `CC1(C)OB(c2ccc(NC(=S)Nc3ccc(S(N)(=O)=O)cc3I)cc2)OC1(C)C` are 0.0093 µM, 0.0098 µM and 0.091 µM.
Take `CC1(C)OB(c2ccc(N/C(S)=N/c3ccc(S(N)(=O)=O)cc3F)cc2)OC1(C)C`: the results for the Ki in assay [1], in assay [2] and in assay [3] were 0.0101 µM, 0.0051 µM and 0.077 µM, respectively.
As to `CC1(C)OB(c2ccc(C(=O)NCc3ccc(S(N)(=O)=O)cc3)cc2)OC1(C)C`, the values for the Ki in assay [2] and in assay [3] were 0.0054 µM and 0.069 µM, respectively.
Take `CC1(C)OB(c2ccc(N/C(S)=N/c3ccc(S(=O)(=O)Nc4ccc(S(N)(=O)=O)cc4)cc3)cc2)OC1(C)C`: the Ki in assay [1] came to 0.084 µM; in assay [2] it was 0.0063 µM; in assay [3] it was 0.049 µM.
On the same counts, the results for `CC1(C)OB(c2ccc(C(=O)NCCc3ccc(S(N)(=O)=O)cc3)cc2)OC1(C)C` are 0.042 µM, 0.0051 µM and 0.07 µM.

The values above are taken from ChEMBL document CHEMBL1140244, “Carbonic anhydrase inhibitors. Synthesis and inhibition of cytosolic/tumor-associated carbonic anhydrase isozymes I, II, and IX with boron-containing sulfonamides, sulfamides, and sulfamates: toward agents for boron neutron capture therapy of hypoxic tumors” (Bioorg Med Chem Lett, 2005).
